Experimental data reported in patent US12213485B2, “Synergistic methods of using benzoxaborole compounds and preservative gases as an antimicrobial for crops” (AGROFRESH INC., priority 2016, dated 2025).

Key:
[1] = tested on: Aspergillus brasiliensis (ASPEBR); experiment: In vitro fungal growth on inoculated agar plates, benzoxaborole and CO2 chamber treatment; format: cell-based
Excerpt: (§1) The following experiments were used to determine synergy between benzoxaborole Compounds A, B, and/or C and preservative gases, such as carbon dioxide (CO2) and sulfur dioxide (SO2). Specific rates or any other unique conditions are noted within the corresponding results tables. Each experiment comprised an air-tight 36 liter (L) chamber (Fisher Scientific, P/N: 08-642-23C), fitted with a bulkhead septum port (Swagelok, P/N: SS-400-61, Solon, OH) used for treatment delivery, as well as for monitoring (using needle extraction) carbon dioxide (CO2), sulfur dioxide (SO2), oxygen (O2) or other headspace samples. A variable speed fan (Thermaltake, Mobile Fan II, P/N: A1888, Taipei City, Taiwan) set to low was also used to circulate the headspace atmosphere.
(§2) In vitro and in vivo experiments were performed concurrently in triple replicates (i.e., triplicate) unless otherwise noted. For in vitro experiments, a single 6-well microtiter plate or three, 10-cm petri plates each containing half strength Potato Dextrose Agar were prepared. Each well or plate was inoculated with 1 microliter (μL) of 1×10^5 spores/ml of the appropriate pathogenic spore suspension (e.g., Botrytis cinerea, BOTRCI; Penicillium expansum, PENIEX; Mucor piriformis, MUCOPI; Fusarium sambucinum FUSASA; or Aspergillus brasiliensis, ASPEBR). The inoculated microtiter or petri plates were then sealed with a breathable film (AeraSeal; P/N: B-100, Excel Scientific, Victorville, CA).
(§3) For treatment, the inoculated agar plates and clamshells containing fruits (e.g., strawberries and grapes) were placed inside a 36 L experimental chamber unit, which was then sealed prior to commencement of compound treatments. The chamber remained sealed throughout the duration of the experiment except for addition of treatment to the chamber, and post-treatment ventilation.
(§4) Benzoxaborole Compound A or Compound B was dissolved in acetone and dispensed onto a 60 mm Whatman #1 filter paper disk using a pipette. The acetone was permitted to evaporate for five minutes before the disk was placed on a watch glass in each chamber.
(§5) A 12% CO2 headspace treatment was then established in the chamber by permitting 10 grams (g) of crushed dry ice placed in a weigh boat in the chamber to evaporate in the sealed chamber. However, the bulkhead port of the chamber was loosened to permit the release of internal pressure. Optionally, a fan was used during the initial hours of treatment (i.e., up to about 6 hours of treatment) to ensure uniform treatment exposure of fruits and plates.
(§6) Untreated controls and CO2 treated chambers contained an acetone-treated disk with similar evaporation for five minutes. CO2 and O2 levels in the chamber were monitored using a handheld gas detector (Dansensor Checkpoint II; P/N 600111, Ringsted, Denmark). Temperature and relative humidity were also monitored within the chamber using data loggers (Onset HOBO; P/N U12-013, Bourne, MA).
(§7) The chamber for all in vitro and in vivo experiments was held at room temperature (i.e., from about 21° C. to about 23° C.) typically for about 3.5 days (i.e., about 84 hours) of treatment exposure. Chambers were then vented. After an additional 2-3 days with the chamber at room temperature, post-treatment radial growth (in mm) of each in vitro pathogen (see Examples 1-7, Tables 1-7) was measured on the inoculated plates using electronic calipers (Mitutoyo, P/N: CD-6-CX, Aurora, IL). In addition, the point of inoculation on fruits was assessed for indication of in vivo disease incidence (e.g., yes or no) and severity of disease incidence (see Examples 8-16, Tables 8-16). Disease severity was rated on a scale ranging from 0 to 4, where “0” indicated no disease severity, “1” indicated minimal disease severity, “2” indicated medium disease severity, “3” indicated high disease severity, and “4” indicated exceptionally high disease severity. […]

[2] = tested on: Botrytis cinerea (BOTRCI); experiment: as above; format: cell-based
Excerpt: as §1, §2, §3, §4, §5, §6, §7

[3] = tested on: Fusarium sambucinum (FUSASA); experiment: as above; format: cell-based
Excerpt: as §1, §2, §3, §4, §5, §6, §7

[4] = tested on: Mucor piriformis (MUCOPI); experiment: as above; format: cell-based
Excerpt: as §1, §2, §3, §4, §5, §6, §7

[5] = tested on: Penicillium expansum (PENIEX); experiment: as above; format: cell-based
Excerpt: as §1, §2, §3, §4, §5, §6, §7

[6] = tested on: Botrytis cinerea (BOTRCI) on strawberries; experiment: In vivo disease severity on wound-inoculated strawberries, benzoxaborole and CO2 chamber treatment
Excerpt: as §1
For in vivo experiments, eight strawberry fruits per repetition were surface sterilized with a 70% ethanol solution. After sterilization, the strawberries were rinsed twice with deionized water. Each strawberry fruit was wounded using a T15 screwdriver tip to a uniform depth of eight mm (8 mm). Each fruit wound was inoculated with 20 μL of 1×10^5 spores/ml pathogen spore suspension of B. cinerea or M. piriformis. The strawberries were then placed with the stem facing downwards inside a 1-pound strawberry clamshell.
as §3, §4, §5, §6, §7

[7] = Table 5, compound 0.14 mg/L + 12% CO2, Colby equation E=x+y−x*y/100
[8] = Table 5, compound 0.14 mg/L + 12% CO2, evaluated 2 days after treatment, 6-well plate, fan first 6 hours, >90% R.H.
[9] = Table 5, compound alone 0.14 mg/L, evaluated 2 days after treatment, 6-well plate, fan first 6 hours, >90% R.H.
[10] = Table 1, compound 0.14 mg/L + 12% CO2, Colby equation E=x+y−x*y/100
[11] = Table 1, compound 0.14 mg/L + 12% CO2, evaluated 2 days after treatment completion, 6-well microtiter plate, 4 replicates, fan first 6 hours
[12] = Table 1, compound alone 0.14 mg/L, evaluated 2 days after treatment completion, 6-well microtiter plate, 4 replicates, fan first 6 hours
[13] = Table 3, compound 0.14 mg/L + 12% CO2, Colby equation E=x+y−x*y/100
[14] = Table 3, compound 0.14 mg/L + 12% CO2, evaluated 2 days after treatment, 6-well microtiter plate, fan first 6 hours, >90% R.H.
[15] = Table 3, compound alone 0.14 mg/L, evaluated 2 days after treatment, 6-well microtiter plate, fan first 6 hours, >90% R.H.
[16] = Table 4, compound 0.14 mg/L + 12% CO2, Colby equation E=x+y−x*y/100
[17] = Table 4, compound 0.14 mg/L + 12% CO2, evaluated 2 days after treatment completion, 6-well microtiter plate, fan first 6 hours
[18] = Table 4, compound alone 0.14 mg/L, evaluated 2 days after treatment completion, 6-well microtiter plate, fan first 6 hours

OB1OCc2cc(F)ccc21 [Compound A]
Colby Calculation [1, 7]: 108.3
Growth (diameter, mm) Cmpd + 12% CO2 [1, 8]: 0.0 mm
Growth (diameter, mm) Cmpd [1, 9]: 2.6 mm
Colby Calculation [2, 10]: 165.4
Growth (diameter, mm) Cmpd + 12% CO2 [2, 11]: 0.0 mm
Growth (diameter, mm) Cmpd [2, 12]: 16.3 mm
Colby Calculation [2, 13]: 101.2
Growth (diameter, mm) Cmpd + 12% CO2 [2, 14]: 4.5 mm
Growth (diameter, mm) Cmpd [2, 15]: 5.5 mm
Colby Calculation [2, 16]: 104.3
Growth (diameter, mm) Cmpd + 12% CO2 [2, 17]: 0.0 mm
Growth (diameter, mm) Cmpd [2, 18]: 1.5 mm
Colby Calculation [2, 7]: 102.9
Growth (diameter, mm) Cmpd + 12% CO2 [2, 8]: 3.0 mm
Growth (diameter, mm) Cmpd [2, 9]: 3.6 mm
Colby Calculation ([2]; Table 6, compound 0.14 mg/L + 12% CO2, Colby equation E=x+y−x*y/100): 108.2
Growth (diameter, mm) Cmpd + 12% CO2 ([2]; Table 6, compound 0.14 mg/L + 12% CO2, evaluated 3 days after treatment, 10 cm petri plates, fan continuous): 6.4 mm
Growth (diameter, mm) Cmpd ([2]; Table 6, compound alone 0.14 mg/L, evaluated 3 days after treatment, 10 cm petri plates, fan continuous): 13.2 mm
Colby Calculation [3, 7]: 104.0
Growth (diameter, mm) Cmpd + 12% CO2 [3, 8]: 3.8 mm
Growth (diameter, mm) Cmpd [3, 9]: 5.0 mm
Colby Calculation [4, 13]: 189.0
Growth (diameter, mm) Cmpd + 12% CO2 [4, 14]: 11.0 mm
Growth (diameter, mm) Cmpd [4, 15]: 22.3 mm
Colby Calculation [5, 10]: 225.0
Growth (diameter, mm) Cmpd + 12% CO2 [5, 11]: 3.3 mm
Growth (diameter, mm) Cmpd [5, 12]: 17.0 mm
Colby Calculation ([5]; Table 2, compound 0.14 mg/L + 12% CO2, Colby equation E=x+y−x*y/100): 119.7
Growth (diameter, mm) Cmpd + 12% CO2 ([5]; Table 2, compound 0.14 mg/L + 12% CO2, evaluated 2 days after treatment, 6-well microtiter plate, fan first 6 hours, >90% R.H.): 5.2 mm
Growth (diameter, mm) Cmpd ([5]; Table 2, compound alone 0.14 mg/L, evaluated 2 days after treatment, 6-well microtiter plate, fan first 6 hours, >90% R.H.): 9.7 mm
Colby Calculation [5, 16]: 124.4
Growth (diameter, mm) Cmpd + 12% CO2 [5, 17]: 0.5 mm
Growth (diameter, mm) Cmpd [5, 18]: 6.4 mm
Colby Calculation [5, 7]: 102.5
Growth (diameter, mm) Cmpd + 12% CO2 [5, 8]: 8.6 mm
Growth (diameter, mm) Cmpd [5, 9]: 10.2 mm
Colby Calculation ([5]; Table 7, compound 0.035 mg/L + 12% CO2, Colby equation E=x+y−x*y/100): 114.7
Growth (diameter, mm) Cmpd + 12% CO2 ([5]; Table 7, compound 0.035 mg/L + 12% CO2, evaluated 3 days after treatment, 10 cm Petri plates, fan continuous): 4.7 mm
Growth (diameter, mm) Cmpd ([5]; Table 7, compound alone 0.035 mg/L, evaluated 3 days after treatment, 10 cm Petri plates, fan continuous): 10.6 mm
Colby Calculation ([6]; Table 8, compound 0.14 mg/L + 12% CO2, Colby equation E=x+y−x*y/100): 176.2
Growth (Severity, 0 to 4) Cmpd + 12% CO2 ([6]; Table 8, compound 0.14 mg/L + 12% CO2, evaluated 2 days after treatment, 4 replicates, fan first 6 hours, >90% R.H.): 0.4
Growth (Severity, 0 to 4) Cmpd ([6]; Table 8, compound alone 0.14 mg/L, evaluated 2 days after treatment, 4 replicates, fan first 6 hours, >90% R.H.): 2.1
Colby Calculation ([6]; Table 9, compound 0.14 mg/L + 12% CO2, Colby equation E=x+y−x*y/100): 107.6
Growth (Severity, 0 to 4) Cmpd + 12% CO2 ([6]; Table 9, compound 0.14 mg/L + 12% CO2, evaluated 3 days after treatment, fan first 6 hours, >90% R.H.): 0.8
Growth (Severity, 0 to 4) Cmpd ([6]; Table 9, compound alone 0.14 mg/L, evaluated 3 days after treatment, fan first 6 hours, >90% R.H.): 1.1
Colby Calculation ([6]; Table 11, compound 0.14 mg/L + 12% CO2, Colby equation E=x+y−x*y/100): 109.0
Growth (Severity, 0 to 4) Cmpd + 12% CO2 ([6]; Table 11, compound 0.14 mg/L + 12% CO2, evaluated 2 days after treatment, fan first 6 hours, >90% R.H.): 0.8
Growth (Severity, 0 to 4) Cmpd ([6]; Table 11, compound alone 0.14 mg/L, evaluated 2 days after treatment, fan first 6 hours, >90% R.H.): 1.4
Colby Calculation ([6]; Table 12, compound 0.14 mg/L + 12% CO2, Colby equation E=x+y−x*y/100): 107.9
Growth (Severity, 0 to 4) Cmpd + 12% CO2 ([6]; Table 12, compound 0.14 mg/L + 12% CO2, evaluated 2 days after treatment, fan first 6 hours, >90% R.H.): 0.4
Growth (Severity, 0 to 4) Cmpd ([6]; Table 12, compound alone 0.14 mg/L, evaluated 2 days after treatment, fan first 6 hours, >90% R.H.): 0.7
Colby Calculation ([6]; Table 13, compound 0.14 mg/L + 12% CO2, Colby equation E=x+y−x*y/100): 163.4
Growth (Severity, 0 to 4) Cmpd + 12% CO2 ([6]; Table 13, compound 0.14 mg/L + 12% CO2, evaluated 3 days after treatment, fan run continuously): 1.4
Growth (Severity, 0 to 4) Cmpd ([6]; Table 13, compound alone 0.14 mg/L, evaluated 3 days after treatment, fan run continuously): 2.4
Colby Calculation ([6]; Table 14, compound 0.0044 mg/L + 12% CO2, Colby equation E=x+y−x*y/100): 114.8
Growth (Severity, 0 to 4) Cmpd + 12% CO2 ([6]; Table 14, compound 0.0044 mg/L + 12% CO2, evaluated 3 days after treatment, fan continuous): 3.2
Colby Calculation ([6]; Table 14, compound 0.0088 mg/L + 12% CO2, Colby equation E=x+y−x*y/100): 502.5
Growth (Severity, 0 to 4) Cmpd + 12% CO2 ([6]; Table 14, compound 0.0088 mg/L + 12% CO2, evaluated 3 days after treatment, fan continuous): 0.6
Growth (Severity, 0 to 4) Cmpd ([6]; Table 14, compound alone 0.0044 mg/L, evaluated 3 days after treatment, fan continuous): 3.4
Growth (Severity, 0 to 4) Cmpd ([6]; Table 14, compound alone 0.0088 mg/L, evaluated 3 days after treatment, fan continuous): 3.3
